Reference: patent publication US12435091B2, “RNA-binding protein multimerization inhibitors and methods of use thereof” (THE UAB RESEARCH FOUNDATION, priority 2020, dated 2025)

These compounds were tested against T1, HuR (Homo sapiens, UniProt Q15717) (assay: cell-based split firefly luciferase-HuR dimerization assay). Settings: split luciferase HuR dimerization assay, compounds administered for 6 hours.
T1 construct: expressed in transfected cells; host or cells: U251 glioma cells, doxycycline-inducible constructs
Experimental: The oncogenic activity of HuR is driven by subcellular localization into the cytoplasm and formation of multimers of HuR. To develop cell based assays to characterize the ability of small molecules to disrupt this process, a split luciferase assay detecting the formation of HuR dimers was developed. The assays were performed in 96 well plates with clear bottom (Corning Inc., Corning, NY). Cells with designed constructs (30,000-50,000 in number) were plated per well; the constructs were induced by doxycycline (0.75 ug/ml) for 48 hours. The evaluated compounds at different concentrations and the corresponding vehicle as the control were administered for 6 hours. The luminescence signals were detected by using InfinitiM200 plate reader (TECAN, Morrisville, NC) in the presence of the luciferase substrate luciferin (D-Luciferin, potassium salt), which was purchased from GoldBio (St Louis, MO). A multichannel pipette (XL 3000I™, Denville Scientific, South Plainfield, NJ) was used in all procedures to ensure the experiment quality.
The assay used the coding sequence of HuR in frame with the N-terminus of firefly luciferase or the C-terminus as depicted in FIG. 2A. When HuR forms dimers in this case, luciferase is generated and with luciferin present, luminescence is generated.
Squares represent luminescence signal from reporter representing HuR dimers (U251 cells co-expressing HuR-Nluc and HuR-Cluc constructs); circles represent luminescence signal from control reporter (U251 cells expressing Fluc construct). Results are shown as mean+SD.

T1 sequence (Q15717 whole entry): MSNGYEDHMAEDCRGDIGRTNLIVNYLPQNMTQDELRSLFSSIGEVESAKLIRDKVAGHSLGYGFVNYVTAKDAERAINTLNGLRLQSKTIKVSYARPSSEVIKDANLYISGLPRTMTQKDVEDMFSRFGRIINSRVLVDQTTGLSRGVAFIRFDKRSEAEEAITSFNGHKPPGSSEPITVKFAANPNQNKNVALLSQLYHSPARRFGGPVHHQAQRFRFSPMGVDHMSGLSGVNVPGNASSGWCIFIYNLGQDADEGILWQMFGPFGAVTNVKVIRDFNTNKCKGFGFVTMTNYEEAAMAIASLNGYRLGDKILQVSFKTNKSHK

HuR IC50 | Structure (SMILES)
Insoluble | Cc1nn(C)c2ccc(-c3cnc4ccc(NC5CCOCC5)nn34)cc12 [Compound 43, 3-(1,3-Dimethyl-1H-indazol-5-yl)-N-(tetrahydro-2H-pyran-4-yl)imidazo[1,2-b]pyridazin-6-amine]
Insoluble | Cc1nn(C)c2ccc(-c3cnc4ccc(N(C)C5CCOCC5)nn34)cc12 [Compound 44, 3-(1,3-Dimethyl-1H-indazol-5-yl)-N-methyl-N-(tetrahydro-2H-pyran-4-yl)imidazo[1,2-b]pyridazin-6-amine]

Same assay, conditions: split luciferase HuR dimerization assay, compounds administered for 6 hours; read-out: HuR IC50

Structure (SMILES) | IC50 [µM]
OCc1ccccc1-c1cnc2ccc(NC3CCOCC3)nn12 [Compound 7] | > 100
CCCN(C)c1ccc2ncc(-c3cccc4cnccc34)n2n1 [Compound 17, 3-(Isoquinolin-5-yl)-N-methyl-N-propylimidazo[1,2-b]pyridazin-6-amine] | > 50
CN1CCC(N(C)c2ccc3ncc(-c4ccc5cn[nH]c5c4)n3n2)CC1 [Compound 25, 3-(1H-Indazol-6-yl)-N-methyl-N-(1-methylpiperidin-4-yl)imidazo[1,2-b]pyridazin-6-amine] | > 50
c1cc2cn[nH]c2cc1-c1cnc2ccc(N(CC3CC3)C3CCOCC3)nn12 [Compound 28, N-(Cyclopropylmethyl)-3-(1H-indazol-6-yl)-N-(tetrahydro-2H-pyran-4-yl)imidazo[1,2-b]pyridazin-6-amine] | > 50
Cc1n[nH]c2cc(-c3cnc4ccc(NC5CCOCC5)nn34)ccc12 [Compound 31, 3-(3-Methyl-1H-indazol-6-yl)-N-(tetrahydro-2H-pyran-4-yl)imidazo[1,2-b]pyridazin-6-amine] | > 50
Cc1nn(C)c2cc(-c3cnc4ccc(N(C)C5CCOCC5)nn34)ccc12 [Compound 35, 3-(1,3-Dimethyl-1H-indazol-6-yl)-N-methyl-N-(tetrahydro-2H-pyran-4-yl)imidazo[1,2-b]pyridazin-6-amine] | > 50
CCCN(C)c1ccc2ncc(-c3ccc4c(C)nn(C)c4c3)n2n1 [Compound 36, 3-(1,3-Dimethyl-1H-indazol-6-yl)-N-methyl-N-propylimidazo[1,2-b]pyridazin-6-amine] | > 50
CC(=O)c1n[nH]c2ccc(-c3cnc4ccc(N(C)C5CCOCC5)nn34)cc12 [Compound 54, 1-(5-(6-(Methyl(tetrahydro-2H-pyran-4-yl)amino)imidazo[1,2-b]pyridazin-3-yl)-1H-indazol-3-yl)ethan-1-one] | > 50

Further lines, results first:

IC50 [µM] | Structure (SMILES)
> 30 | CS(=O)(=O)c1ccc(-c2cnc3ccc(NC4CCOCC4)nn23)cc1 [Compound 6]
> 30 | c1cncc(-c2cnc3ccc(NC4CCOCC4)nn23)c1 [Compound 8]
> 30 | CC(=O)Nc1cccc(-c2cnc3ccc(NC4CCOCC4)nn23)c1 [Compound 9]
> 30 | c1cc2cc(-c3cnc4ccc(NC5CCOCC5)nn34)ccc2o1 [Compound 10]
18 | c1ccc(-c2cnc3ccc(NC4CCOCC4)nn23)cc1 [Compound 11]
12 | c1cnc2cc(-c3cnc4ccc(NC5CCOCC5)nn34)ccc2n1 [Compound 12]
23 | CN(c1ccc2ncc(-c3ccccc3)n2n1)C1CCOCC1 [Compound 14, N-Methyl-3-phenyl-N-(tetrahydro-2H-pyran-4-yl)imidazo[1,2-b]pyridazin-6-amine]
> 30 | COc1ccc(-c2cnc3ccc(NC4CCCCC4)nn23)cc1 [Compound 15]
> 50 | CCCN(C)c1ccc2ncc(-c3cccc(N(C)C)c3)n2n1 [Compound 16, 3-(3-(Dimethylamino)phenyl)-N-methyl-N-propylimidazo[1,2-b]pyridazin-6-amine]
25 | CCCN(C)c1ccc2ncc(-c3ccc4c(C)n[nH]c4c3)n2n1 [Compound 33, N-Methyl-3-(3-methyl-1H-indazol-6-yl)-N-propylimidazo[1,2-b]pyridazin-6-amine]
40 | Cc1nn(C)c2cc(-c3cnc4ccc(NC5CCOCC5)nn34)ccc12 [Compound 34, 3-(1,3-Dimethyl-1H-indazol-6-yl)-N-(tetrahydro-2H-pyran-4-yl)imidazo[1,2-b]pyridazin-6-amine]
